Data published in patent publication US20230165922A1, “APPLICATION OF RADIX GENTIANAE MACROPHYLLAE AND MONOMER COMPOUND THEREOF IN KILLING MITES” (SMILEBIOTECK ZHUHAI LIMITED, priority 2020, published 2023).

Key:
D.folliculorum [1] = test: Preliminary in-vitro screening of monomer compounds for effect on survival time of Demodex mites; settings: 20° C., humidity 96%; for Survival time (hours) of D.folliculorum in vitro: 35 µL monomer compound solution in 10% DMSO, observed every 2 hours, mean ± SD
From the text: The names and molecular formulas of the monomer compounds are shown in the following table: The monomer compounds were purchased from Chengdu Herbpurify Co., Ltd., and were standard references.
The powders of the monomer compounds shown in Table 2 were separately dissolved in dimethyl sulfoxide (DMSO), and then diluted with sterilized double-distilled water to make the final concentration of DMSO 10%, which could not shorten the survival time of Demodex mites as per a controlled study. The negative control group received DMSO mixed with sterilized water at a final concentration of 10%.
As in Example 1, 35 µL of each solution was added to a glass slide, and the survival of the mites was observed under an optical microscope every 2 hours. During the experiment, the Demodex mites were observed by two skilled operators separately for the activities (bodies, limbs and the like) through the microscope to determine whether they were dead or not. If the two operators gave different results, the survival status was determined independently by a third skilled operator. The in-vitro culture was conducted in a climatic chamber at a temperature of 20° C. and a humidity of 96%. During the observation, the glass slides were transported in a wet box to ensure the high humidity.
In this experiment, statistical analysis was conducted using SPSS22.0 statistical software, normality test was conducted using Shapiro-Wilk test, and homogeneity of variance test was conducted using Bartlett’s test.
Effects of monomer compounds of traditional Chinese medicine on survival time of D.folliculorum The in-vitro culture of the Demodex mites was conducted in an environment at a humidity of 96% and a temperature of 20° C. The survival of the Demodex mites was observed dynamically and the survival time was recorded.

D.folliculorum [2] = test: In-vitro culture of Demodex mites with traditional Chinese medicine decoctions (survival time); settings: 20° C., humidity 96%
Description: The ethical guidelines of “The Declaration of Helsinki” and “Measures for the Ethical Review of Biomedical Research Involving Humans” were strictly followed in this study. Demodex mites from patients diagnosed with ocular Demodex infestation were collected in this study. Subjects who met the inclusion criteria were enrolled after giving an informed conversation and signing an informed consent.
The detection of Demodex mites was performed according to the conventional method of eyelash microscopy (12,20). 3 eyelashes were collected from each eyelid, with a total of 12 eyelashes. […] Demodex mites in all periods were counted and classified according to morphology (specific standard: D.brevis with a head-to-body ratio of 1:1, and D.folliculorum with a head-to-body ratio of 1:3 to 1:4). […]
On the basis of the above detection of Demodex mites, 35 µL of the solutions was separately added to the slides, and the survival of the mites was observed every 2 hours. […] If the two operators gave different results, the survival status was determined independently by a third skilled operator. […]
60 g of dried ready-to-use forms was weighed using an electronic balance, and soaked in water with an amount of 10 times (600 mL) in a marmite overnight. […]

Row | Compound | Survival time (hours) of D.folliculorum in vitro (D.folliculorum [1]) [h] | further results
1 | C=C[C@@H]1C2=CCOC(=O)C2=CO[C@H]1O[C@@H]1O[C@H](CO)[C@@H](O)[C@H](O)[C@H]1O [Gentiopicroside] | 37.31 ± 36.06 | Survival time (hours) of D.folliculorum in vitro (D.folliculorum [1]; listed as gentiopicroside): 37.31 ± 36.06 h; Effect on in-vitro survival time of Demodex mites versus 10% DMSO negative control (D.folliculorum [1]; compared with 10% DMSO solution): significantly shorter
2 | C[C@@H]1[C@H]2[C@H](O[C@@H]3O[C@H](CO)[C@@H](O)[C@H](O)[C@H]3O)OC=C(C(=O)O)[C@H]2C[C@@H]1O [Loganic acid] | 61.56 ± 22.84 | –
3 | COC(=O)c1c2c(c3ccccc3c1O)OC(C)(C)C=C2 [Mollugin] | 61.10 ± 25.12 | –
4 | C=C(C)[C@@H]1CC[C@]2(C)[C@H](CC=C3[C@@H]4[C@@H](C)[C@H](C)CC[C@]4(C)CC[C@]32C)[C@@]1(C)CCC(=O)O [Roburic acid] | 63.41 ± 12.20 | –
5 | COc1cc2ccc(=O)oc2cc1O [Scopoletin] | 54.67 ± 25.66 | –
6 | C=C[C@H]1[C@H](O[C@@H]2O[C@H](CO)[C@@H](O)[C@H](O)[C@H]2O)OC=C2C(=O)OCC[C@H]21 [Sweroside] | 60.79 ± 25.98 | –
7 | C=C[C@H]1[C@H](O[C@@H]2O[C@H](CO)[C@@H](O)[C@H](O)[C@H]2O)OC=C2C(=O)OCC[C@]21O [Swertiamarin] | 59.68 ± 10.97 | –
8 | CC1=CCC(O)(C(C)C)CC1 (centres unmarked) [T40, terpinen-4-ol] | – | Survival time (hours) of D.folliculorum in vitro (D.folliculorum [2]; 35 µL solution on slide, decoctions of 60 g medicine made up to 100 mL water, TTO and T4O 10% in sterilized water, observed every 2 hours, mean ± SD): 40.50 ± 13.12 h; Difference in in-vitro survival time of Demodex mites versus control groups (statistical comparison) (D.folliculorum [2]; Bonferroni comparison with negative control sterilized water (and TTO, T40 groups)): did not show significant differences
